Measurements published in PubChem BioAssay (NCI).
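Step 1: Grow cells in 96-well plates. Step 2: Expose to compound for 48 hours at 5 concentrations. Step 3: Interpolate endpoints linearly; if unreached, use highest concentration. GI50 is the concentration that inhibits growth by half. TGI: total growth inhibition.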

Columns and labels:
Experiment in all cases: DTP human tumour cell line panel, 48 h
MOLT-4 leukemia = test system: MOLT-4 leukemia
PC-3 prostate = test system: PC-3 prostate
NCI-H23 lung = test system: NCI-H23 lung
UACC-257 melanoma = test system: UACC-257 melanoma
HCT-15 colon = test system: HCT-15 colon
T-47D breast = test system: T-47D breast
SK-MEL-28 melanoma = test system: SK-MEL-28 melanoma
DU-145 prostate = test system: DU-145 prostate
K-562 leukemia = test system: K-562 leukemia
HS 578T breast = test system: HS 578T breast

| SMILES | GI50 (MOLT-4 leukemia) [µM] | TGI (MOLT-4 leukemia) [µM] | GI50 (PC-3 prostate) [µM] | TGI (PC-3 prostate) [µM] | GI50 (NCI-H23 lung) [µM] | TGI (NCI-H23 lung) [µM] | GI50 (UACC-257 melanoma) [µM] | TGI (UACC-257 melanoma) [µM] | GI50 (HCT-15 colon) [µM] | TGI (HCT-15 colon) [µM] | GI50 (T-47D breast) [µM] | TGI (T-47D breast) [µM] | GI50 (SK-MEL-28 melanoma) [µM] | TGI (SK-MEL-28 melanoma) [µM] | GI50 (DU-145 prostate) [µM] | TGI (DU-145 prostate) [µM] | GI50 (K-562 leukemia) [µM] | TGI (K-562 leukemia) [µM] | GI50 (HS 578T breast) [µM] | TGI (HS 578T breast) [µM] |
| --- | --- | --- | --- | --- | --- | --- | --- | --- | --- | --- | --- | --- | --- | --- | --- | --- | --- | --- | --- | --- |
| CCCCCCCCCc1ccc(OCCOCCOCCOCCOCCOCCOCCOCCOCCO)cc1 | 0.704 | 2.15 | 0.0898 | 1.18 | 0.257 | 3.26 | 0.0567 | 0.812 | 0.761 | 1.84 | 0.224 | 2.75 | 0.895 | 2.02 | 1.24 | 4.65 | 0.332 | 7.27 | 1.17 | 9.03 |
| Cc1cc(CCl)c(C)cc1CCl | 0.573 | 8.39 | 2.25 | 10.1 | 3.77 | 18.5 | 2.15 | 5.29 | 2.72 | 17.3 | 0.733 | 2.31 | 2.49 | 6.66 | 0.733 | 2.92 | 1.06 | > 33.2 | 2.4 | 8.21 |
| COc1cc(C2=NN(C(C)=O)C(c3cc(OC)c(OC)c(OC)c3)C2)ccc1O (stereo not given) | 0.381 | > 100 | 0.304 | > 100 | 0.51 | > 100 | > 93.6 | > 100 | 0.392 | > 100 | – | – | 0.478 | > 100 | 0.383 | > 33.9 | 0.261 | > 100 | 0.275 | – |
| CCn1cc(/C=C2\Oc3cc(OCC#N)ccc3C2=O)c2cc(OC)ccc21 | 0.187 | > 100 | 0.218 | 53.8 | 0.553 | > 80.8 | 57.8 | > 100 | 0.153 | > 100 | 0.961 | > 100 | 6.71 | > 100 | 0.44 | > 62 | 0.0888 | > 100 | 0.267 | > 28.8 |
| Cc1ccc(S(=O)(=O)c2nc(-c3ccccc3)oc2S(C)(=O)=O)cc1 | 2.27 | 5.87 | 10.4 | 23.1 | 6.73 | 22.6 | 3.01 | 12.2 | 1.7 | 3.31 | 1.87 | 3.93 | 1.92 | 3.77 | 1.71 | 3.15 | 1.59 | 4.3 | 10.1 | 43.8 |
| COc1ccc(-c2cnnn2-c2nonc2-n2cccc2)cc1OC | 3.63 | > 100 | 14.1 | > 100 | 4.09 | > 100 | 9.61 | > 100 | 2.38 | > 100 | 3.79 | > 100 | 7.74 | > 100 | 7.95 | > 100 | 1.37 | > 100 | 4.55 | 75.7 |
| CC(=O)c1cccc(NC(=O)C(=O)c2c(O)c3ccccc3oc2=O)c1 | – | > 100 | – | > 100 | – | > 100 | – | > 100 | – | > 100 | – | > 100 | – | > 100 | – | – | – | > 100 | – | > 100 |
| COc1ccc(-c2c(C#N)c(N)nc(N3CCOCC3)c2C#N)cc1 | 27.7 | > 100 | 17.6 | 67.3 | – | – | 23.9 | 82.1 | 18.8 | 62.4 | 0.828 | 6.14 | 33.9 | > 100 | 27.3 | > 100 | 34.5 | > 100 | 17.5 | 64.4 |
| CC(=O)NC1(NC(C)=O)C2CC(C1Cc1ccccc1)C(C)(C)C2C (stereo not given) | – | > 100 | – | > 100 | – | > 100 | – | > 100 | – | – | – | > 100 | – | > 100 | – | > 100 | – | > 100 | – | > 100 |
| CC(C)(C)NCC(O)COc1c(Br)c(Br)c(Br)c2c1OC(C)(C)C2 (stereo not given) | 1.59 | 3.16 | 1.66 | 3.18 | – | – | 1.99 | 3.91 | 1.89 | 3.4 | 1.65 | 3.59 | 1.81 | 3.29 | 1.51 | 2.84 | 1.54 | 2.94 | – | – |
| COc1ccc(/C=C2/C(=O)N(C(=O)c3ccccc3O)N=C2C)cc1 | – | > 100 | – | > 100 | – | – | – | > 100 | – | 1.24 | – | > 100 | – | > 100 | – | > 100 | – | > 100 | – | – |
| COc1cc([C@@H]2c3cc4c(cc3[C@H](OC(C)=O)[C@H]3COC(=O)[C@@H]23)OCO4)cc(OC)c1OC | 0.438 | > 100 | 0.318 | > 100 | 0.333 | – | – | > 100 | 0.371 | > 100 | – | – | 0.729 | > 100 | 0.245 | 0.649 | 0.253 | > 100 | 0.253 | 0.682 |
| C=C1C(=O)C23[C@H](O)C1CC[C@H]2[C@]12COC3(O)[C@@H](O)[C@@H]1C(C)(C)CC[C@@H]2O | – | 33.1 | – | – | – | 29.8 | – | 29.5 | – | 15.9 | – | – | – | 12.9 | – | – | – | 15.6 | – | – |
| COc1ccccc1-c1cc(=O)c2cc(C)c(C)c(C(=O)O)c2o1 | – | > 100 | – | – | – | > 100 | – | > 100 | – | > 100 | – | – | – | > 100 | – | – | – | > 100 | – | – |
| OC1=CN=COc2ccccc21 | – | > 100 | – | – | – | > 100 | – | > 100 | – | > 100 | – | – | – | > 100 | – | – | – | > 100 | – | – |
| CCCCCCC(O)CC[C@H]1CCC[C@@H](C)N1 (stereo not given in full) | – | > 100 | – | – | – | < 10 | – | < 10 | – | > 31.6 | – | – | – | > 31.6 | – | – | – | > 100 | – | – |
| C[N+](C)(C)CC1CCCCC1=O (stereo not given) | – | 35.3 | – | – | – | 40.8 | – | 30.9 | – | 29 | – | – | – | 31.6 | – | – | – | 64.3 | – | – |
| O=c1c2c(-c3ccccc3)c3ccccc3nc2cnn1-c1ccccc1 | – | > 100 | – | – | – | > 100 | – | > 100 | – | > 100 | – | – | – | > 100 | – | – | – | > 100 | – | – |
| CCOc1ccc(N=C(NC(=O)c2ccccc2)SC)cc1 | – | > 100 | – | – | – | > 100 | – | > 100 | – | > 100 | – | – | – | > 100 | – | – | – | > 100 | – | – |
